Laboratory results: ChEMBL document CHEMBL1134215, “Influence of chain length and N-alkylation on the selective serotonin receptor ligand 9-(aminomethyl)-9,10-dihydroanthracene” (Bioorg Med Chem Lett, 2001)

How the values were obtained:
Assay type in all cases: cell-based
[1] = target: 5-hydroxytryptamine receptor 2A (Homo sapiens, UniProt P28223); test: Displacement of [3H]ketanserin from 5-hydroxytryptamine 2A receptor expressed NIH3T3 cells
D(2) dopamine receptor = D(2) dopamine receptor (Mus musculus, UniProt P61168); test: Binding affinity to Dopamine receptor D2 using [3H]spiperone as radioligand in stably transfected NIH3T3 cells
D(2) dopamine receptor, sequence (P61168 whole entry): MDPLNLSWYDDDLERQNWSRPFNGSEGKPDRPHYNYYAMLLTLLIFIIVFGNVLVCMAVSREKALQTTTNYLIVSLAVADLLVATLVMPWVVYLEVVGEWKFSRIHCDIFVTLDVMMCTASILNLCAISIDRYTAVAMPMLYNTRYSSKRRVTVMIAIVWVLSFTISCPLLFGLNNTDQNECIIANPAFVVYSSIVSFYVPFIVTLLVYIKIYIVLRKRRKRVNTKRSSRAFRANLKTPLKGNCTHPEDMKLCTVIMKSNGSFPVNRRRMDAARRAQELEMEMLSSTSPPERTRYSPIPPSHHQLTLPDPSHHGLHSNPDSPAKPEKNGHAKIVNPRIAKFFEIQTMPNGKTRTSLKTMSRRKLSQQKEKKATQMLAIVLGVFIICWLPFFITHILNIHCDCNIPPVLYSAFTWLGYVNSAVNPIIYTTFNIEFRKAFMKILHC

[2] = target: Sodium-dependent noradrenaline transporter (Mus musculus, UniProt O55192); test: Binding affinity to Norepinephrine transporter using [3H]-[…] as radioligand in stably transfected NIH3T3 cells
Sodium-dependent noradrenaline transporter, sequence (O55192 whole entry): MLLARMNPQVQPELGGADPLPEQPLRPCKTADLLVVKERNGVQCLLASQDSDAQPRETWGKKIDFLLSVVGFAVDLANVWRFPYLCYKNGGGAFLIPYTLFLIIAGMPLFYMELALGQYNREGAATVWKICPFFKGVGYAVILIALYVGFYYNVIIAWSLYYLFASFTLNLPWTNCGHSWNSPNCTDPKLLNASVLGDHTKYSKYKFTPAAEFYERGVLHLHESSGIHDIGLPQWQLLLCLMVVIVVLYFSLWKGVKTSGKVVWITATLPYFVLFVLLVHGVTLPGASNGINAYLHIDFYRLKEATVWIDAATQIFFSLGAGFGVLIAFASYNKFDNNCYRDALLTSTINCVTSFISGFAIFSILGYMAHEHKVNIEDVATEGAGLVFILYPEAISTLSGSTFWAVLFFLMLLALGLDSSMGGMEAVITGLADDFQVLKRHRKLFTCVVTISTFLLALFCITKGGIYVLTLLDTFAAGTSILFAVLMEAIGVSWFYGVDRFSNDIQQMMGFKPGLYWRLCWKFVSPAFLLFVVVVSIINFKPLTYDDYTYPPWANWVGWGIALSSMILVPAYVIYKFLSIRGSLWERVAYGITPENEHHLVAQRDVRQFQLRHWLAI

[3] = target: T1, 5-hydroxytryptamine receptor 2C (Mus musculus, UniProt P34968); test: Binding affinity to 5-hydroxytryptamine 2C receptor using [3H]Mesulergine as radioligand in stably transfected NIH3T3 cells
T1 sequence (P34968 whole entry): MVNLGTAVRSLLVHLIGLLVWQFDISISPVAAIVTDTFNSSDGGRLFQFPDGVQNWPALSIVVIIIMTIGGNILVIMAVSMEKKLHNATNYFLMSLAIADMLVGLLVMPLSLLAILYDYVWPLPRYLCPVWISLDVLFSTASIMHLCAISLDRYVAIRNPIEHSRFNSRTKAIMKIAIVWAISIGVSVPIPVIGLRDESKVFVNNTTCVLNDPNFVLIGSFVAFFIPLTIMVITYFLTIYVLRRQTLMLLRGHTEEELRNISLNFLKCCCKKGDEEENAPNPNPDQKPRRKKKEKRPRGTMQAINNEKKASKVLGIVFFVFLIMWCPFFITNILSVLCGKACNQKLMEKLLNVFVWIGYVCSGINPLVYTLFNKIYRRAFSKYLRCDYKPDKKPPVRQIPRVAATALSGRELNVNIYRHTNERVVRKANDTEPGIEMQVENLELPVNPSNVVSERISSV

[4] = target: Sodium-dependent serotonin transporter (Mus musculus, UniProt Q60857); test: Binding affinity to Serotonin transporter using [3H]-paroxetine as radioligand in stably transfected NIH3T3 cells
Sodium-dependent serotonin transporter, sequence (Q60857 whole entry): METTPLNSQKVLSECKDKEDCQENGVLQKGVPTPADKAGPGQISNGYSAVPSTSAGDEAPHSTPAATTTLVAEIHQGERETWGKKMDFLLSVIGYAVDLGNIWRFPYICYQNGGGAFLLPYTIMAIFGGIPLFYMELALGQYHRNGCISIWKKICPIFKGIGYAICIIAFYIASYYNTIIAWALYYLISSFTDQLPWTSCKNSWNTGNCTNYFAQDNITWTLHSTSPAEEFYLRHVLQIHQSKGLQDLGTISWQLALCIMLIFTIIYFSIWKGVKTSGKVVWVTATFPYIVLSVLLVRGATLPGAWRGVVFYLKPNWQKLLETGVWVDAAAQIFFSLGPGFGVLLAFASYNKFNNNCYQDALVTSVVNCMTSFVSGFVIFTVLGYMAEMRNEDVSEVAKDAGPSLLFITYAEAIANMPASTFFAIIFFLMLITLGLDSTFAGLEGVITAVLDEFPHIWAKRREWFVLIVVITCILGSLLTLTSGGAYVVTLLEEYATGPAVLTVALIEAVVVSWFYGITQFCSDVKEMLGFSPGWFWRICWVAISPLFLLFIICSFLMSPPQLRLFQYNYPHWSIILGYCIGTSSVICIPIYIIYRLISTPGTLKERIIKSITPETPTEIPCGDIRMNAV

[5] = target: T1, 5-hydroxytryptamine receptor 2C; test: Binding affinity to 5-hydroxytryptamine 2C receptor measured using radioligand [3H]Mesulergine in stably transfected NIH3T3 cells

5-hydroxytryptamine receptor 2A, sequence (P28223 whole entry): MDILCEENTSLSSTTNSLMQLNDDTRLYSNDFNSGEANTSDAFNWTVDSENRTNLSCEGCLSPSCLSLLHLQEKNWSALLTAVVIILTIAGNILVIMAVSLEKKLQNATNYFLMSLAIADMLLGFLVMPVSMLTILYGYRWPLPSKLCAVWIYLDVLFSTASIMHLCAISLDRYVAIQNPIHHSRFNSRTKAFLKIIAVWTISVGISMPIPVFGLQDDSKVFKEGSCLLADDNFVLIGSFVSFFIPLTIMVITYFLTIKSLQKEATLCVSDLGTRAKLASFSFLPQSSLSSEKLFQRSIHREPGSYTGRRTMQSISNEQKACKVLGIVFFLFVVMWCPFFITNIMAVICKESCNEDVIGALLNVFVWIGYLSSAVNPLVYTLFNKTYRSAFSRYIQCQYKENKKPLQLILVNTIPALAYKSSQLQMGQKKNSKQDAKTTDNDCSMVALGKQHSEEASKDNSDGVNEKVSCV

SMILES | Ki [1] [nM] | also measured
CNCCCC1c2ccccc2Cc2ccccc21 | 13 | –
NC1c2ccccc2Cc2ccccc21 | 12000 | –
CNCC1c2ccccc2Cc2ccccc21 | 52 | –
CN(C)CC1c2ccccc2Cc2ccccc21 | 540 | –
CN(C)CCCN1c2ccccc2CCc2ccccc21 [IMIPRAMINE] | – | Ki (D(2) dopamine receptor): 726 nM
CN(C)CCCC1c2ccccc2Cc2ccccc21 | 22 | –
C[N+](C)(C)CC1c2ccccc2Cc2ccccc21 | 4000 | –
NCCCC1c2ccccc2Cc2ccccc21 | 32 | –
NCCCN1c2ccccc2CCc2ccccc21 | 397 | –
NCCC1c2ccccc2Cc2ccccc21 | 480 | –
CN1CCC(=C2c3ccccc3C=Cc3ccccc32)CC1 [CYPROHEPTADINE] | – | Ki [2]: 290 nM; Ki [3]: 11 nM; Ki [4]: 4100 nM; Ki (D(2) dopamine receptor): 112 nM
c1ccc(CNCC2c3ccccc3Cc3ccccc32)cc1 | 721 | –
NCC1c2ccccc2Cc2ccccc21 | – | Ki [2]: > 10000 nM; Ki [5]: 43 nM; Ki [4]: > 10000 nM; Ki (D(2) dopamine receptor): > 10000 nM
